Key:
[1] = tested on: HBV; assay: Anti-HBV activity in stable transfected HepG2.2.15 cell line (HBV DNA from secreted virions, realtime PCR); assay type: cell-based
[2] = tested on: HBV; assay: Anti-HBV activity in HepG2.117 cell line (Tet-off, intracellular HBV DNA, realtime PCR); assay type: cell-based
[3] = Cytotoxicity in HepG2 cells, 4 days, Resazurin assay; details: human
[4] = Hepatitis B virus, HepG2.2.15, 144 h, HepG2.2.15 cells, 6 days of treatment, secreted virion HBV DNA, read-out: HepG2 2.15 EC50
[5] = Hepatitis B virus, HepG2.117, 72 h, HepG2.117 cells, 3 days of treatment, intracellular HBV DNA, read-out: HepG2 117 EC50

Cc1cc(NC(=O)c2cccc(S(=O)(=O)NC3CCC(O)C3)c2)ccc1F (single isomer, unassigned) [Compound 145a, N-(4-fluoro-3-methyl-phenyl)-3-[[(1R,3S)-3-hydroxycyclopentyl]sulfamoyl]benzamide or N-(4-fluoro-3-methyl-phenyl)-3-[[(1S,3R)-3-hydroxycyclopentyl]sulfamoyl]benzamide]
EC50 ([1]; HepG2.2.15 cells, 6 days of treatment, secreted virion HBV DNA, read-out: HepG2 2.15 EC50): 0.14 µM | EC50 ([2]; HepG2.117 cells, 3 days of treatment, intracellular HBV DNA, read-out: HepG2 117 EC50): 0.21 µM | CC50 at 4 days ([3]; HepG2 cells): > 25 µM

O=C(Nc1cccc(C(F)(F)F)c1)c1cc(S(=O)(=O)NC2CCCCC2)ccc1F [Compound 7]
EC50 [1, 4]: 0.66 µM | EC50 [2, 5]: 0.56 µM | CC50 at 4 days ([3]; HepG2 cells): 11.4 µM

Cc1cc(NC(=O)c2cccc(S(=O)(=O)NC3CCCC3)c2)ccc1F [Compound 11]
EC50 [1, 4]: 0.1 µM | EC50 [2, 5]: 0.42 µM | CC50 at 4 days ([3]; HepG2 cells): 19.6 µM

Cc1cc(F)cc(NC(=O)c2cccc(S(=O)(=O)NC3CCCC3)c2)c1 [Compound 12]
EC50 [1, 4]: 0.11 µM | EC50 [2, 5]: 1.51 µM | CC50 at 4 days ([3]; HepG2 cells): 13.3 µM

Cc1ccc(NC(=O)c2cccc(S(=O)(=O)NC3CCCC3)c2)cc1F [Compound 13]
EC50 [1, 4]: 1.99 µM | EC50 [2, 5]: 15.3 µM | CC50 at 4 days ([3]; HepG2 cells): 13.8 µM

O=C(Nc1ccc(F)c(F)c1)c1cccc(S(=O)(=O)NC2CCCC2)c1 [Compound 14]
EC50 [1, 4]: 0.09 µM | EC50 [2, 5]: 0.36 µM | CC50 at 4 days ([3]; HepG2 cells): 11.7 µM

O=C(Nc1cc(F)cc(F)c1)c1cccc(S(=O)(=O)NC2CCCC2)c1 [Compound 15]
EC50 [1, 4]: 0.28 µM | EC50 [2, 5]: 0.78 µM | CC50 at 4 days ([3]; HepG2 cells): 10.1 µM

Cc1cc(NC(=O)c2cccc(S(=O)(=O)NC3CCCC3)c2)ccc1C#N [Compound 16]
EC50 [1, 4]: 1.21 µM | EC50 [2, 5]: 2.8 µM | CC50 at 4 days ([3]; HepG2 cells): 10.3 µM

Cc1cccc(NC(=O)c2cc(S(=O)(=O)N3CCCCC3)c(Cl)cc2Cl)c1 [Compound 17]
EC50 [1, 4]: 0.56 µM | EC50 [2, 5]: 2.65 µM | CC50 at 4 days ([3]; HepG2 cells): > 100 µM

O=C(Nc1ccc(F)cc1)c1cccc(S(=O)(=O)N2CCCC2)c1 [Compound 36]
EC50 [1, 4]: 4.53 µM | EC50 [2, 5]: 3.03 µM | CC50 at 4 days ([3]; HepG2 cells): 97 µM

CN(C(=O)C1CCCCC1)S(=O)(=O)c1cccc(C(=O)Nc2ccc(F)cc2)c1 [Compound 48]
EC50 [1, 4]: 2.92 µM | EC50 [2, 5]: 1.88 µM | CC50 at 4 days ([3]; HepG2 cells): 97.2 µM

CN(C)S(=O)(=O)c1ccc(F)c(C(=O)Nc2ccccc2)c1 [Compound 49]
EC50 [1, 4]: 13.4 µM | EC50 [2, 5]: 9.15 µM | CC50 at 4 days ([3]; HepG2 cells): > 100 µM

O=C(Nc1ccc(C(F)(F)F)cc1)c1cc(S(=O)(=O)NC2CCCC2)ccc1F [Compound 50]
EC50 [1, 4]: 45.9 µM | EC50 [2, 5]: 15.8 µM | CC50 at 4 days ([3]; HepG2 cells): 11.3 µM

O=C(Nc1ccc(Cl)cc1)c1cc(S(=O)(=O)NC2CCCC2)ccc1F [Compound 51]
EC50 [1, 4]: 3.98 µM | EC50 [2, 5]: 9.44 µM | CC50 at 4 days ([3]; HepG2 cells): 20.8 µM

O=C(Nc1ccc(F)cc1)c1cc(S(=O)(=O)N2CCC3(CC2)OCCO3)ccc1F [Compound 52]
EC50 [1, 4]: 1.94 µM | EC50 [2, 5]: 2.44 µM | CC50 at 4 days ([3]; HepG2 cells): > 50 µM

O=C(Nc1ccc(F)cc1)c1cc(S(=O)(=O)NC2CCCC2)ccc1F [Compound 53]
EC50 [1, 4]: 0.36 µM | EC50 [2, 5]: 0.44 µM | CC50 at 4 days ([3]; HepG2 cells): > 50 µM

O=C(Nc1ccc(F)cc1)c1cc(S(=O)(=O)N2CCCCC2)ccc1Cl [Compound 54]
EC50 [1, 4]: 1.63 µM | EC50 [2, 5]: 1.55 µM | CC50 at 4 days ([3]; HepG2 cells): > 50 µM

O=C(Nc1ccccc1)c1cccc(S(=O)(=O)NC2CC2)c1 [Compound 55]
EC50 [1, 4]: 3.06 µM | EC50 [2, 5]: 3.26 µM | CC50 at 4 days ([3]; HepG2 cells): > 100 µM

O=C(Nc1ccc(F)cc1)c1cccc(S(=O)(=O)NC(=O)C2CCCCC2)c1 [Compound 56]
EC50 [1, 4]: 1.64 µM | EC50 [2, 5]: 5.45 µM | CC50 at 4 days ([3]; HepG2 cells): > 100 µM

O=C(Nc1ccc(F)cc1)c1ccc(S(=O)(=O)N2CCCCC2)o1 [Compound 57]
EC50 [1, 4]: 15.5 µM | EC50 [2, 5]: 12.7 µM | CC50 at 4 days ([3]; HepG2 cells): 52.1 µM

O=C(Nc1ccccc1)c1ccc(S(=O)(=O)N2CCCCC2)o1 [Compound 58]
EC50 [1, 4]: 14.6 µM | EC50 [2, 5]: 19.9 µM | CC50 at 4 days ([3]; HepG2 cells): 62.5 µM

O=C(Nc1ccccc1)c1cc(S(=O)(=O)N2CCCCC2)cs1 [Compound 59]
EC50 [1, 4]: 12.8 µM | EC50 [2, 5]: 19.3 µM | CC50 at 4 days ([3]; HepG2 cells): 46.7 µM

O=C(Nc1ccccc1)c1cc(S(=O)(=O)NC2CCCCC2)cs1 [Compound 60]
EC50 [1, 4]: 0.85 µM | EC50 [2, 5]: 0.67 µM | CC50 at 4 days ([3]; HepG2 cells): 29.1 µM

O=C(Nc1ccc(F)cc1)c1cc(S(=O)(=O)N2CCCCC2)cs1 [Compound 61]
EC50 ([1]; Hepatitis B virus, HepG2.2.15, 144 h, read-out: HepG2 2.15 EC50 (μM)): 7.07 µM | EC50 ([2]; Hepatitis B virus, HepG2.117, 72 h, read-out: HepG2 117 EC50 (μM)): 15.4 µM | CC50 at 4 days [3]: 35.7 µM

Cc1[nH]c(C(=O)Nc2ccccc2)c(C)c1S(=O)(=O)N1CCCCC1 [Compound 62]
EC50 [1, 4]: 7.06 µM | EC50 [2, 5]: 10.1 µM | CC50 at 4 days ([3]; HepG2 cells): > 50 µM

O=C(Nc1ccccc1)c1c[nH]c(S(=O)(=O)NC2CCCCC2)n1 [Compound 63]
EC50 [1, 4]: 9.94 µM | EC50 [2, 5]: 21.1 µM | CC50 at 4 days ([3]; HepG2 cells): > 100 µM

O=C(Nc1ccccc1)c1cccc(S(=O)(=O)NC2CCCCC2)n1 [Compound 65]
EC50 [1, 4]: 10.8 µM | EC50 [2, 5]: > 25 µM | CC50 at 4 days ([3]; HepG2 cells): 35.3 µM

O=C(Nc1ccccc1)c1ccnc(S(=O)(=O)NC2CCCCC2)c1 [Compound 66]
EC50 [1, 4]: 4.27 µM | EC50 [2, 5]: 14.5 µM | CC50 at 4 days ([3]; HepG2 cells): > 100 µM

O=C(Nc1ccccc1)c1cc(S(=O)(=O)NC2CCCCC2)ccn1 [Compound 67]
EC50 [1, 4]: 11.1 µM | EC50 [2, 5]: 18.6 µM | CC50 at 4 days ([3]; HepG2 cells): > 100 µM

O=C(Nc1ccccc1)c1cncc(S(=O)(=O)NC2CCCCC2)c1 [Compound 68]
EC50 [1, 4]: 18.6 µM | EC50 [2, 5]: > 25 µM | CC50 at 4 days ([3]; HepG2 cells): 68 µM

O=C(Nc1ccc(F)cc1)c1cccc(S(=O)(=O)N2CCCCC2=O)c1 [Compound 69]
EC50 [1, 4]: 3.9 µM | EC50 [2, 5]: 10.4 µM | CC50 at 4 days ([3]; HepG2 cells): > 25 µM

CC[C@@H](C)NS(=O)(=O)c1cccc(C(=O)Nc2ccc(F)cc2)c1 [Compound 70]
EC50 [1, 4]: 0.34 µM | EC50 [2, 5]: 0.89 µM | CC50 at 4 days ([3]; HepG2 cells): > 25 µM

CC[C@H](C)NS(=O)(=O)c1cccc(C(=O)Nc2ccc(F)cc2)c1 [Compound 71]
EC50 [1, 4]: 0.75 µM | EC50 [2, 5]: 8.63 µM | CC50 at 4 days ([3]; HepG2 cells): > 25 µM

Cc1cc(NC(=O)c2cccc(S(=O)(=O)N[C@H]3CCOC3)c2)ccc1F [Compound 72]
EC50 [1, 4]: 0.12 µM | EC50 [2, 5]: 0.37 µM | CC50 at 4 days ([3]; HepG2 cells): > 25 µM

Cc1cc(NC(=O)c2cccc(S(=O)(=O)NC(C)C)c2)ccc1F [Compound 73]
EC50 [1, 4]: 0.073 µM | EC50 [2, 5]: 0.15 µM | CC50 at 4 days ([3]; HepG2 cells): > 25 µM

CC(C)NS(=O)(=O)c1cccc(C(=O)Nc2ccc(F)c(C(F)(F)F)c2)c1 [Compound 74]
EC50 [1, 4]: 0.64 µM | EC50 [2, 5]: 0.53 µM | CC50 at 4 days ([3]; HepG2 cells): > 25 µM

N#Cc1cccc(NC(=O)c2cccc(S(=O)(=O)NC3CCCC3)c2)c1 [Compound 75]
EC50 [1, 4]: 0.39 µM | EC50 [2, 5]: 0.82 µM | CC50 at 4 days ([3]; HepG2 cells): > 25 µM

CC1(NS(=O)(=O)c2cccc(C(=O)Nc3ccc(F)cc3)c2)CCCC1 [Compound 76]
EC50 [1, 4]: 0.72 µM | EC50 [2, 5]: 2.5 µM | CC50 at 4 days ([3]; HepG2 cells): > 25 µM

O=C(Nc1ccc(F)cc1)c1cc(S(=O)(=O)NC2CCCC2)c(Cl)cc1Cl [Compound 78]
EC50 [1, 4]: 0.9 µM | EC50 [2, 5]: 0.65 µM | CC50 at 4 days ([3]; HepG2 cells): > 25 µM

CCC(C)(C)NS(=O)(=O)c1cccc(C(=O)Nc2ccc(F)cc2)c1 [Compound 79]
EC50 [1, 4]: 0.96 µM | EC50 [2, 5]: 1.69 µM | CC50 at 4 days ([3]; HepG2 cells): > 25 µM

N#Cc1ccc(NC(=O)c2cccc(S(=O)(=O)NC3CCCC3)c2)cc1 [Compound 80]
EC50 [1, 4]: 8.4 µM | EC50 [2, 5]: 17.9 µM | CC50 at 4 days ([3]; HepG2 cells): > 25 µM

O=C(Nc1cccc(C(F)(F)F)c1)c1cccc(S(=O)(=O)NC2CCCC2)c1 [Compound 81]
EC50 [1, 4]: 0.24 µM | EC50 [2, 5]: 0.81 µM | CC50 at 4 days ([3]; HepG2 cells): 15.3 µM

Cc1cc(C#N)cc(NC(=O)c2cccc(S(=O)(=O)NC3CCCC3)c2)c1 [Compound 82]
EC50 [1, 4]: 1.2 µM | EC50 [2, 5]: 3.13 µM | CC50 at 4 days ([3]; HepG2 cells): > 25 µM

CC(C)NS(=O)(=O)c1cccc(C(=O)Nc2ccc(F)c(C3CC3)c2)c1 [Compound 84]
EC50 [1, 4]: 0.32 µM | EC50 [2, 5]: 0.91 µM | CC50 at 4 days ([3]; HepG2 cells): > 25 µM

Source: patent US10676429B2, “Sulfamoyl-arylamides and the use thereof as medicaments for the treatment of hepatitis B” (priority 2012, dated 2020)
